Reference: patent US20230310441A1, “TREATMENT FOR SCHIZOPHRENIA” (TAKEDA PHARMACEUTICAL COMPANY, priority 2020, published 2023)
Marks after values point to notes of the source that are not given here.

System: endogenous dopamine release in the human brain
Assay: [^11C]PHNO PET of endogenous dopamine release after d-AMPH challenge
Assay type: in vivo
Settings: for effect on [^11C]PHNO BPND: d-AMPH 0.5 mg/kg single oral dose, all ROI; for ΔBPND^AMPH Mean (SD), Ca / ΔBPND^AMPH Mean (SD), GP / ΔBPND^AMPH Mean (SD), Pu / ΔBPND^AMPH Mean (SD), SN / ΔBPND^AMPH Mean (SD), VSt: d-AMPH only scan
Method: A T1-weighted magnetic resonance imaging (MRI) scan of the brain, performed at screening, was used to obtain anatomical information required for PET data analysis. Each subject underwent three [^11C]PHNO PET scans, one at baseline, the second approximately 3 h after a single oral dose of dex-amphetamine (d-AMPH, 0.5 mg/kg), and the third approximately 5 h after a single oral dose of Compound (I) (20 or 40 mg) and 3 h after an oral dose of dex-amphetamine (d-APMH) (0.5 mg/kg) (FIG. 2).
Subjects were positioned in the PET scanner, after the insertion of a venous cannula in an antecubital or forearm vein. Soft padding and head restraints were used to minimize head movement during data acquisition. All dynamic [^11C]PHNO PET scans were acquired on Siemens Biograph 6 PET/CT scanners (Hi-Rez (PET/CT1) or a TruePoint with TrueV, Siemens Healthcare, Erlangen, Germany). All scans for a particular subject were acquired on the same scanner. A low-dose computed tomography (CT) scan was performed immediately before each PET study to estimate signal attenuation. Following an intravenous bolus injection of [^11C]PHNO, dynamic emission data were acquired for 90 min in 26 frames of increasing duration. The dynamic images were reconstructed using Fourier rebinning and a 2D filtered discrete inverse Fourier transform algorithm with 5 mm isotropic Gaussian filter on a 128×128 matrix with 2.6 zoom giving 2 mm isotropic voxels. Appropriate corrections were applied for attenuation, randoms, and scatter.
The primary set of ROIs defined were the ventral striatum (VSt), putamen (Pu) and cerebellum. […] The cerebellum was used as a reference region. An additional set of ROIs including the caudate nucleus (Ca), globus pallidus (GP) and substantia nigra (SN) was also evaluated.
Regional TAC data extracted from the PET images were fitted using a basis function implementation of the SRTM (Gunn et al., 1997) to estimate the binding potential relative to the non-displaceable component (BPND) for each PET scan, as a measure of specific binding (Innis et al., 2007).
Reduction in [^11C]-PHNO specific binding following a d-AMPH challenge (ΔBPND^APMH) was quantified as percent change in postdose BPND (BPND^AMPH) from baseline BPND (BPND^BL):
Reduction in [^11C]-PHNO specific binding following a combination of Compound (I) and d-AMPH (ΔBPND^APMH+C1) was quantified as percent change in postdose BPND (BPND^AMPH+C1) from baseline BPND (BPND^BL):
The effect of Compound (I) (ΔΔBPND) was quantified as the percent change BPND in ΔBPND^APMH+C1 compared to ΔBPND^APMH:
All statistical comparisons were conducted using Student's t-tests for each ROI, using paired tests for within subject comparisons, and unpaired tests for between group comparisons.

[1] = subjects of the 20 mg Compound (I) group
[2] = subjects of the 40 mg Compound (I) group

## C[C@H](N)Cc1ccccc1 [d-AMPH, Dextroamphetamine, reference compound]
  effect on [^11C]PHNO BPND: significant reduction in BPND
Listed as d-APMH
  effect on [^11C]PHNO BPND: robust reduction of [^11C]PHNO BPND
All subjects
  ΔBPND^AMPH Mean (SD), Ca: 15.6 (5.7) * %
  ΔBPND^AMPH Mean (SD), GP: 15.9 (7.7) * %
  ΔBPND^AMPH Mean (SD), Pu: 21.6 (5.1) * %
  ΔBPND^AMPH Mean (SD), SN: 27.8 (10.9) * %
  ΔBPND^AMPH Mean (SD), VSt: 26.5 (7.7) * %
[1]
  ΔBPND^AMPH Mean (SD), Ca: 17.8 (5.7) * %
  ΔBPND^AMPH Mean (SD), GP: 17.6 (1.5) * %
  ΔBPND^AMPH Mean (SD), Pu: 23.6 (4.6) * %
  ΔBPND^AMPH Mean (SD), SN: 28.4 (9.0) * %
  ΔBPND^AMPH Mean (SD), VSt: 25.4 (8.0) * %
[2]
  ΔBPND^AMPH Mean (SD), Ca: 13.4 (5.3) * %
  ΔBPND^AMPH Mean (SD), GP: 14.2 (11.1) * %
  ΔBPND^AMPH Mean (SD), Pu: 19.6 (5.3) * %
  ΔBPND^AMPH Mean (SD), SN: 27.2 (13.6) * %
  ΔBPND^AMPH Mean (SD), VSt: 27.6 (8.2) * %
